# Reference: ChEMBL document CHEMBL4406843, “β-Amino acid derivatives as mitochondrial complex III inhibitors of L. donovani: A promising chemotype targeting visceral leishmaniasis” (Eur J Med Chem, 2019)
# What was measured:
# [1] = system: Leishmania donovani; assay: (§1) Antileishmanial activity against Leishmania donovani promastigotes infected in BALB/c mouse assessed as reduction in parasite burden in liver at 25 mg/kg, ip administered for 7 days starting at 15 days post-infection and measured after 1 week post last dose Giemsa staining-based assay relative to control; type: functional
# [2] = Toxicity in BALB/c mouse infected with Leishmania donovani promastigotes assessed as effect on body weight at 12.5 to 200 mg/kg, ip administered for 7 days starting at 15 days post-infection; type: organism-based; conditions: in vivo
# [3] = system: Leishmania donovani; assay: as §1, with “inhibition” for “reduction”, “200” for “25”; type: functional
# [4] = Toxicity in BALB/c mouse infected with Leishmania donovani promastigotes assessed as serum ALT level at 50 mg/kg , ip measured after 3 to 7 weeks (rvb = 31 IU/L); type: organism-based; conditions: in vivo
# [5] = system: Leishmania donovani; assay: Antileishmanial activity against Leishmania donovani MHOM/IN/80/Dd8 promastigotes harboring luciferase reporter gene assessed as inhibition of viability at 3.12 to 100 uM after 24 to 72 hrs by MTT assay relative to control; type: functional
# [6] = Cytotoxicity against African green monkey Vero cells assessed as reduction in cell viability after 72 hrs by MTT assay; type: cell-based; conditions: chlorocebus sabaeus
# [7] = system: Leishmania donovani; assay: as §1, with “inhibition” for “reduction”, “50” for “25”; type: functional
# [8] = system: Leishmania donovani; assay: as §1, with “inhibition” for “reduction”, “spleen” for “liver”, “100” for “25”; type: functional
# [9] = system: Leishmania donovani; assay: Antileishmanial activity against Leishmania donovani MHOM/IN/80/Dd8 amastigotes harboring luciferase reporter gene infected in mouse J774 cells at 3.12 to 100 uM after 48 hrs by Steady-Glo luminescence assay relative to control; type: functional
# [10] = system: Leishmania donovani; assay: as §1, with “spleen” for “liver”; type: functional
# [11] = system: Leishmania donovani; assay: Antileishmanial activity against promastigote stage of Leishmania donovani MHOM/IN/80/Dd8 harboring luciferase reporter gene at 50 uM after 48 hrs by Steady-Glo luminescence assay relative to control; type: functional; conditions: MHOM/IN/80/Dd8, 48 h
# [12] = Cytotoxicity against African green monkey Vero cells assessed as cell viability at 50 uM by MTT assay relative to control; type: cell-based; conditions: chlorocebus sabaeus, read-out: Activity
# [13] = Selectivity index, ratio of CC50 for African green monkey Vero cells to IC50 for antileishmanial activity against Leishmania donovani MHOM/IN/80/Dd8 amastigotes harboring luciferase reporter gene; type: toxicity; conditions: read-out: Ratio CC50/IC50
compound,measurement,setting,value
CCOC(=O)C(C(=O)c1ccc(OC)cc1)C(NC(C)=O)c1cccc2ccccc12 (stereo not drawn),inhibition in vivo at 25 mg/kg,[1],67.6%
same,Activity,[2],Non-Toxic
same,inhibition in vivo at 200 mg/kg,[3],92.1%
same,Activity,[4],17 to 177 IU/L
same,inhibition (INH),[5],95.4%
same,CC50 at 72 h,[6],> 350 µM
same,inhibition in vivo at 50 mg/kg,[7],91.5%
same,inhibition in vivo at 100 mg/kg,[8],92.8%
same,inhibition (INH),[9],>92%
same,inhibition in vivo at 25 mg/kg,[10],68.5%
same,inhibition at 50 µM,[11],96.6%
same,viability at 50 µM,[12],98.7%
same,selectivity ratio,[13],25.7
